# According to PubChem BioAssay (NCI):
#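 Tested at 5 concentrations; 48 h exposure; 96-well plates; endpoints linearly interpolated, else capped at highest concentration. TGI marks complete inhibition of growth.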
# Key:
# Assay in all cases: growth of human tumour cells (NCI), 48 h
# A549 NSCLC = test system: A549 NSCLC
# DU-145 prostate = test system: DU-145 prostate
# HCC-2998 colon = test system: HCC-2998 colon
# HL-60(TB) leukemia = test system: HL-60(TB) leukemia
# K-562 leukemia = test system: K-562 leukemia
# LOX IMVI melanoma = test system: LOX IMVI melanoma
# M14 melanoma = test system: M14 melanoma
# MDA-MB-231 breast = test system: MDA-MB-231 breast
# NCI-H226 lung = test system: NCI-H226 lung
# NCI/ADR-RES ovarian = test system: NCI/ADR-RES ovarian
# PC-3 prostate = test system: PC-3 prostate
# SK-MEL-2 melanoma = test system: SK-MEL-2 melanoma
# SK-OV-3 ovarian = test system: SK-OV-3 ovarian
# SN12C renal = test system: SN12C renal
# SW-620 colon = test system: SW-620 colon
# T-47D breast = test system: T-47D breast
SMILES,TGI (A549 NSCLC),TGI (DU-145 prostate),TGI (HCC-2998 colon),TGI (HL-60(TB) leukemia),TGI (K-562 leukemia),TGI (LOX IMVI melanoma),TGI (M14 melanoma),TGI (MDA-MB-231 breast),TGI (NCI-H226 lung),TGI (NCI/ADR-RES ovarian),TGI (PC-3 prostate),TGI (SK-MEL-2 melanoma),TGI (SK-OV-3 ovarian),TGI (SN12C renal),TGI (SW-620 colon),TGI (T-47D breast)
C=CCN1C(=O)/C(=C/c2ccc(C)cc2)NC1=S,> 100 µM,> 100 µM,> 100 µM,48.9 µM,> 100 µM,> 100 µM,> 100 µM,> 100 µM,> 100 µM,> 100 µM,> 100 µM,> 100 µM,> 100 µM,> 100 µM,> 100 µM,> 100 µM
CC1OC(OC2C(OC(=O)[C@@H]3CC(C)(C)C[C@@H]4C5=CC[C@@H]6[C@@]7(C)C[C@H](O)[C@H](OC8OC(CO)C(O)C(O)C8O)[C@@](C)(CO)C7[C@H](O)C[C@@]6(C)[C@]5(C)C[C@@H](O)[C@H]43)OCC(O)C2O)C(O)C(O)C1O (stereo partly drawn),,> 15 µM,> 15 µM,> 15 µM,> 15 µM,> 15 µM,> 15 µM,> 15 µM,> 15 µM,> 15 µM,> 15 µM,> 15 µM,> 15 µM,> 15 µM,> 15 µM,> 15 µM
CN(N)/N=N/c1nc[nH]c1[N+](=O)[O-],> 100 µM,> 100 µM,> 100 µM,12.2 µM,73 µM,> 100 µM,> 100 µM,60.9 µM,> 100 µM,> 100 µM,> 100 µM,> 100 µM,> 100 µM,> 100 µM,> 100 µM,> 100 µM
C#C[C@]1(O)CC[C@H]2[C@@H]3CCC4=C/C(=N/NC(=O)c5cccc6cc7ccccc7nc56)CC[C@@H]4[C@H]3CC[C@@]21CC,> 100 µM,> 100 µM,> 100 µM,> 100 µM,> 100 µM,> 100 µM,> 100 µM,> 100 µM,> 100 µM,> 100 µM,> 100 µM,> 100 µM,> 100 µM,> 100 µM,> 100 µM,66.2 µM
O=C1CCCC1C(O)(C(F)(F)F)C(F)(F)F (stereo not drawn),> 100 µM,> 100 µM,> 100 µM,> 100 µM,> 100 µM,> 100 µM,> 100 µM,> 100 µM,> 100 µM,> 100 µM,> 100 µM,> 100 µM,,> 100 µM,> 100 µM,> 100 µM
NC(=S)N/N=C1/CCCC2CCCC[C@@H]12 (stereo partly drawn),> 100 µM,> 100 µM,> 100 µM,> 100 µM,> 100 µM,> 100 µM,> 100 µM,> 100 µM,> 100 µM,> 100 µM,> 100 µM,> 100 µM,> 100 µM,,> 100 µM,> 100 µM
